Source: patent US7745636B2, “Hepatitis C virus inhibitors” (Bristol-Myers Squibb Company, priority 2006, dated 2010)
Read-outs that look alike come from different tables or passages of the source.

Tested on: HCV 1b-377-neo replicon cells
Assay: HCV Replicon assay, HCV 1b-377-neo replicon cells
Assay type: cell-based, HCV 1b genotype
Conditions: Table 2, read-out: Range (EC50 against HCV 1b)

## COC(=O)N[C@H](C(=O)N1[C@H](c2ncc(-c3ccc(-c4ccc(-c5cnc([C@@H]6C[C@@H]7C[C@@H]7N6C(=O)[C@@H](NC(=O)OC)C(C)C)[nH]5)cc4)cc3)[nH]2)C[C@@H]2C[C@@H]21)C(C)C [Example M122, methyl((1S)-1-(((1S,3S,5S)-3-(5-(4′-(2-((1S,3S,5S)-2-((2S)-2-((methoxycarbonyl)amino)-3-methylbutanoyl)-2-azabicyclo[3.1.0]hex-3-yl)-1H-imidazol-5-yl)-4-biphenylyl)-1H-imidazol-2-yl)-2-azabicyclo[3.1.0]hex-2-yl)carbonyl)-2-methylpropyl)carbamate]
Hepatitis C virus
  EC50: 1 to 99 nM

## COCC[C@H](NC(=O)OC)C(=O)N[C@H](c1nc(-c2ccc(-c3ccc(-c4c[nH]c([C@@H]5CCCN5C(=O)[C@H](CCOC)NC(=O)OC)n4)cc3)cc2)c[nH]1)C(C)C [Example R20, methyl ((1S)-3-methoxy-1-(((2S)-2-(4-(4′-(2-((1S)-1-((N-(methoxycarbonyl)-O-methyl-L-homoseryl)amino)-2-methylpropyl)-1H-imidazol-4-yl)-4-biphenylyl)-1H-imidazol-2-yl)-1-pyrrolidinyl)carbonyl)propyl)carbamate]
Hepatitis C virus
  EC50: 0.001 to 0.999 nM

## COC(=O)NC(C(=O)NC(C)c1ncc(-c2ccc(-c3ccc(-c4cnc(C5CCCN5C(=O)C(NC(=O)OC)C(C)C)[nH]4)cc3)cc2)[nH]1)C(C)C (stereo not shown) [Example R26]
  EC50: 0.001 to 0.999 nM

## COC(=O)NC(C(=O)NC(C)c1ncc(-c2ccc(-c3ccc(-c4cnc(C5CCCN5C(=O)C(NC(=O)OC)C(C)OC)[nH]4)cc3)cc2)[nH]1)C(C)OC (stereo not shown) [Example R27]
  EC50: 0.001 to 0.999 nM

## COC(=O)N[C@H](C(=O)N[C@H](c1ncc(-c2ccc(-c3ccc(-c4cnc([C@@H]5CCCN5C(=O)[C@@H](NC(=O)OC)C(C)C)[nH]4)cc3)cc2)[nH]1)[C@@H](C)O)C(C)C [Example R29]
Hepatitis C virus
  EC50: 0.001 to 0.999 nM

## COC(=O)N[C@H](C(=O)Nc1ncc(-c2ccc(-c3ccc(-c4cnc([C@@H]5CCCN5C(=O)[C@@H](NC(=O)OC)C(C)C)[nH]4)cc3)cc2)[nH]1)C(C)C [Example R33, (S)-2-methoxycarbonylamino-N-(5-(4′-(2-((S)-1-((S)-2-methoxycarbonylamino-3-methylbutanoyl)pyrrolidin-2-yl)-1H-imidazol-5-yl)biphenyl-4-yl)-1H-imidazol-2-yl)-3-methylbutanamide]
Hepatitis C virus
  EC50: 1 to 99 nM

## COC(=O)N[C@H](C(=O)N[C@H](c1ncc(-c2ccc(-c3ccc(-c4cnc([C@@H]5CCCN5C(=O)[C@@H](NC(=O)OC)C(C)C)[nH]4)cc3)cc2)[nH]1)C(C)OCc1ccccc1)C(C)C (stereo partly shown) [Example R34]
Hepatitis C virus
  EC50: 0.001 to 0.999 nM

## C[C@@H](OCc1ccccc1)[C@H](N)c1ncc(-c2ccc(-c3ccc(-c4cnc([C@@H]5CCCN5)[nH]4)cc3)cc2)[nH]1 [Example R35]
Hepatitis C virus
  EC50: 100 to 999 nM

## COC(=O)NC(C(=O)Nc1ncc(-c2ccc(-c3ccc(-c4cnc([C@@H]5CCCN5C(O)[C@@H](NC(=O)OC)C(C)C)[nH]4)cc3)cc2)[nH]1)C(C)C (stereo partly shown) [Example R36]
Hepatitis C virus
  EC50: 0.001 to 0.999 nM

## COC(=O)N[C@H](C(=O)N[C@H](c1nc(-c2ccc(-c3ccc(-c4c[nH]c(C5CCCN5C(=O)[C@@H](NC(=O)OC)[C@@H](C)OC)n4)cc3)cc2)c[nH]1)C(C)C)[C@@H](C)OC (stereo partly shown) [Example R37]
Hepatitis C virus
  EC50: 0.001 to 0.999 nM

## O=C1N[C@H](C(=O)N2CCC[C@H]2c2ncc(-c3ccc(-c4ccc(-c5cnc([C@@H]6CCCN6C(=O)[C@@H]6CCOC(=O)N6)[nH]5)cc4)cc3)[nH]2)CCO1 [LS11]
  EC50: 1000 to 10000 nM

## C=CCCOC(=O)N[C@H](C(=O)N1CCC[C@H]1c1ncc(-c2ccc(-c3ccc(-c4cnc([C@@H]5CCCN5C(=O)[C@@H](NC(=O)OCCC=C)C(C)C)[nH]4)cc3)cc2)[nH]1)C(C)C [LS16]
  EC50: 1 to 99 nM

## CNCC(=O)N1CCC[C@H]1c1ncc(-c2ccc(-c3ccc(-c4cnc([C@@H]5CCCN5C(=O)[C@@H](NC(=O)OC)C(C)C)[nH]4)cc3)cc2)[nH]1 [LS20]
  EC50: 0.001 to 0.999 nM

## COC(=O)N[C@H](C(=O)N1CCC[C@H]1c1ncc(-c2ccc(-c3ccc(-c4cnc([C@@H]5CCCN5C(=O)CNCc5ccccc5)[nH]4)cc3)cc2)[nH]1)C(C)C [LS22]
  EC50: 0.001 to 0.999 nM

## COC(=O)N[C@H](C(=O)N1CCC[C@H]1c1ncc(-c2ccc(-c3ccc(-c4cnc([C@@H]5CCCN5C(=O)CNC(C)C)[nH]4)cc3)cc2)[nH]1)C(C)C [LS25]
  EC50: 0.001 to 0.999 nM

## COC(=O)N[C@H](C(=O)N1CCC[C@H]1c1ncc(-c2ccc(-c3ccc(-c4cnc([C@@H]5CCCN5C(=O)CN(C(C)C)C(C)C)[nH]4)cc3)cc2)[nH]1)C(C)C [LS26]
  EC50: 0.001 to 0.999 nM

## CC(C)[C@H](NC(=O)N(C)C)C(=O)O [OL-2]
  EC50: 0.001 to 0.999 nM

## CC(C)[C@H](NC(=O)OCCF)C(=O)O [OL-4]
  EC50: 0.001 to 0.999 nM

## CCC(CC)[C@H](NC(=O)OC)C(=O)O [OL-5]
  EC50: 0.001 to 0.999 nM

## COC(=O)N[C@H](C(=O)N1CCC[C@H]1c1ncc(-c2ccc(-c3ccc(-c4cnc([C@@H]5CCCN5C(=O)[C@@H](Nc5ncccn5)C(C)C)[nH]4)cc3)cc2)[nH]1)C(C)C [cj-11, methyl ((1S)-2-methyl-1-(((2S)-2-(5-(4′-(2-((2S)-1-(N-2-pyrimidinyl-L-valyl)-2-pyrrolidinyl)-1H-imidazol-5-yl)-4-biphenylyl)-1H-imidazol-2-yl)-1-pyrrolidinyl)carbonyl)propyl)carbamate]
Hepatitis C virus
  EC50: 0.001 to 0.999 nM

## COC(=O)N[C@H](C(=O)N1CCC[C@H]1c1ncc(-c2ccc(-c3ccc(-c4cnc([C@@H]5CCCN5C(=O)[C@@H](Nc5noc(N)n5)C(C)C)[nH]4)cc3)cc2)[nH]1)C(C)C [cj-16, methyl((1S)-1-(((2S)-2-(5-(4′-(2-((2S)-1-(N-(5-amino-1,2,4-oxadiazol-3-yl)-L-valyl)-2-pyrrolidinyl)-1H-imidazol-5-yl)-4-biphenylyl)-1H-imidazol-2-yl)-1-pyrrolidinyl)carbonyl)-2-methylpropyl)carbamate]
Hepatitis C virus
  EC50: 0.001 to 0.999 nM

## COC(=O)N[C@H](C(=O)N1CCC[C@H]1c1ncc(-c2ccc(-c3ccc(-c4cnc([C@@H]5CCCN5C(=O)[C@@H](NC(=NC#N)N(C)C)C(C)C)[nH]4)cc3)cc2)[nH]1)C(C)C [cj-17, methyl ((1S)-1-(((2S)-2-(5-(4′-(2-((2S)-1-(N-(cyano(dimethyl)carbamimidoyl)-L-valyl)-2-pyrrolidinyl)-1H-imidazol-5-yl)-4-biphenylyl)-1H-imidazol-2-yl)-1-pyrrolidinyl)carbonyl)-2-methylpropyl)carbamate]
Hepatitis C virus
  EC50: 0.001 to 0.999 nM
